# Data: US20150368642A1, “LNA OLIGONUCLEOTIDE CARBOHYDRATE CONJUGATES” (HOFFMANN-LA ROCHE INC., priority 2013, published 2015)
# Strand notation (5' to 3'): a small letter for the sugar, then the base; units joined by * are phosphorothioate-linked, units joined directly phosphodiester-linked; [ ] holds rarer units or linkages, { } end groups; capitals alone tell only the bases. {Conj1a} = GalNAc carbohydrate conjugate Conj1a; l = locked nucleic acid (LNA); [5mC] = 5-methylcytosine; d = 2'-deoxy (DNA)
# Legend:
# ApoB = assay: Non-human primate study, serum ApoB and LDL-C (ApoB conjugates); assay type: in vivo, cynomolgus monkeys; details: Example 7; single i.v. dose; FIG. 16
# Procedure: The primary objective for this study is to investigate selected lipid markers over 7 weeks after a single slow bolus injection of anti-PCSK9 and anti-ApoB LNA conjugated to GalNac cluster (Conj2a) to cynomolgus monkeys and assess the potential toxicity of compounds in monkey. The compounds which were prepared in sterile saline (0.9%) at an initial concentration of 0.625 and 2.5 mg/ml).
# Male (PCSK9) or female monkeys (ApoB) monkeys of at least 24 months old are used, and given free access to tap water and 180 g of MWM(E) SQC SHORT expanded diet (Dietex France, SDS, Saint Gratien, France) will be distributed daily per animal. The total quantity of food distributed in each cage will be calculated according to the number of animals in the cage on that day. In addition, fruit or vegetables will be given daily to each animal. The animals will be acclimated to the study conditions for a period of at least 14 days before the beginning of the treatment period. During this period, pre-treatment investigations will be performed. The animals are dosed i.v. at a dose if, for example, 0.25 mg/kg or 1 mg/kg. The dose volume will be 0.4 mL/kg. 2 animals are used per group. After three weeks, the data will be analyzed and a second group of animals using a higher or lower dosing regimen may be initiated—preliminary dose setting is 0.5 mg/kg and 1 mg/kg, or lower than that based on the first data set.
# The dose formulations will be administered once on Day 1. Animals will be observed for a period of 7 weeks following treatment, and will be released from the study on Day 51. Day 1 corresponds to the first day of the treatment period. Clinical observations and body weight and food intake (per group) will be recorded prior to and during the study.
# The following parameters will be determined for all surviving animals at the occasions indicated below: • full biochemistry panel (complete list below)—on Days −8, 15 and 50, • liver Safety (ASAT, ALP, ALAT, TBIL and GGT only)—on Days 4, 8, 22 and 36, • lipid profile (Total cholesterol, HDL-C, LDL-C and Triglycerides) and Apo-B only—on Days −1, 4, 8, 22, 29, 36, and 43.
# Blood (approximately 1.0 mL) is taken into lithium heparin tubes (using the ADVIA 1650 blood biochemistry analyzer): Apo-B, sodium, potassium, chloride, calcium, inorganic phosphorus, glucose, HDL-C, LDL-C, urea, creatinine, total bilirubin (TBIL), total cholesterol, triglycerides, alkaline phosphatase (ALP), alanine aminotransferase (ALAT), aspartate aminotransferase (ASAT), creatine kinase, gamma-glutamyl transferase (GGT), lactate dehydrogenase, total protein, albumin, albumin/globulin ratio.
# Other Analysis: WO2011009697 & WO2010142805 provides the methods for the following analysis: qPCR, PCSK9/ApoB mRNA analysis, Other analysis includes PCSK9/ApoB protein ELISA, serum Lp(a) analysis with ELISA (Mercodia No. 10-1106-01), tissue and plasma oligonucleotide analysis (drug content), Extraction of samples, standard- and QC-samples, Oligonucleotide content determination by ELISA. […] There was no indication of hepatotoxicity or nephrotoxicity with the ApoB targeting compounds.
# ApoB mRNA = assay: In vivo silencing of ApoB mRNA with monoGalNAc conjugates (branched DNA assay); details: Example 4; C57BL6 mice, single 1 mg/kg i.v., day 7; compared to unconjugated #12; FIG. 7a
# From the text: Capital letters are LNA nucleosides (such as beta-D-oxy LNA), lower case letters are a DNA nucleoside. Subscript s represents a phosphorothioate internucleoside linkage (region A). LNA cytosines are optionally 5-methyl cytosine. The 2PO linker (region B) is 5′ to the sequence region A, and comprises of two DNA nucleosides linked by phosphodiester linkage, with the internucleoside linkage between the 3′ DNA nucleoside of region A and the 5′ LNA nucleoside of region A also being phosphodiester. A linkage group (Y) may be used to link the conjugate group, when present, to region B, or A (SEQ ID NO 8 and 11). To compare the monoGalNAc conjugates with different linkers and the GalNAc cluster C57BL6 mice were treated i.v. with saline control or with a single dose of 1 mg/kg of ASO conjugated to Mono-GalNAc either without biocleavable linker, with Dithio-linker (SS) or with DNA/PO-linker (PO) (FIG. 7a) or with 0.25 mg/kg of ASO conjugated to Mono-GalNAc or GalNAc cluster (FIG. 7b). After 7 days the animals were sacrificed and RNA was isolated from liver and kidney samples and analysed for ApoB mRNA expression.
# C57BL6 mice were dosed i.v. with a single dose of 1 mg/kg or 0.25 mg/kg ASO formulated in saline or saline alone according to the above table. […] Total RNA was extracted from liver and kidney samples and ApoB mRNA levels were analysed using a branched DNA assay.
# HBV = HBV mouse hydrodynamic tailvein injection model, HBV DNA in liver by qPCR; assay type: in vivo, Balb/C mouse
# From the text: An LNA oligomer can be assessed for antiviral effect in vivo in a mouse strain, such as BALB/c or C57B/6, where HBV replication can be established by hydrodynamic tail vein injection of a plasmid, such as pAAV/HBV1.3, expressing a partially repeated HBV pregenomic RNA (J Virol. 1995 October; 69(10):6158-69) or pAAV2/HBV1.3, a derivative thereof (WuxiAppTech, Wuxi, China). The injection of the plasmid in a high volume of saline, equal to 8-12% of the body mass of the mouse, will result in the accumulation and expression of the viral pregenomic RNA in the liver, subsequently leading to the establishment of an acute HBV infection. Treatment of the animals with an LNA oligomer can be initiated 1 or more days before the injection of the plasmid or 1 day after the injection of the plasmid. Delivery of the LNA oligomer in saline can be done by intravenous or subcutaneous injection.
# An in vivo experiment was performed on SEQ ID 55 and SEQ ID 56, the latter being a GalNAC conjugate of the former (conj1a). The LNA compounds were tested for efficacy against HBV in the mouse hydrodynamic tailvein injection model using the Balb/C mouse strain. LNA compounds were be tested at equimolar doses; 2 and 10 mg/kg, single injection (SEQ ID 55) and at 2.7 and 13.5 mg/kg, single injection (SEQ ID 56). The LNA anti-HBV compounds were compared to saline and to entecavir, an inhibitor of the HBV reverse transcriptase. Entecavir was dosed p.o. daily at 0.1 mg/kg. Where applicable, the animals were treated with the LNA compound 24 hours before the hydrodynamic injection. Entecavir was given in daily doses as described starting 24 hours after the hydrodynamic injection. […] All the animals were monitored on a daily basis for body weight changes and clinical signs for the duration of the in vivo study. […] All the blood samples were collected in tubes containing heparin sodium The portion of the left lobe of each liver was used to determine the level of HBV DNA replication by qPCR, as copies per unit weight of liver in which the quantity of total HBV DNA level is subtracted by the quantity of pAAV2/HBV DNA level. […]
Substance,pharmacology (serum ApoB and LDL-C) (ApoB),"ApoB mRNA knock down, activity in the liver (ApoB mRNA)",further results
"SEQ ID NO 32: GsTstsgsascsascstsgsTsC, 2PO-DNA (5′ca3′), cholesterol; ApoB (CAGTTGACACTGTC; listed as DNA, chemistry not fully specified)",effective,,
"SEQ ID NO 17: GsTstsgsascsascstsgsTsC, GalNAc cluster Conj2a; ApoB (GTTGACACTGTC; listed as DNA, chemistry not fully specified)",effective,,potency compared to the cholesterol conjugated compound (ApoB): considerably more potent than the cholesterol conjugated compound
"SEQ ID NO 14: GsCsaststsgsgstsastsTsCsA, 2PO-DNA (5′ca3′), cholesterol; ApoB (CAGCATTGGTATTCA; chemistry not fully specified)",did not exhibit significant pharmacology,,
"SEQ ID NO 10: GsCsaststsgsgstsastsTsCsA, 2PO-DNA (5′ca3′), monoGalNAc; ApoB (CAGCATTGGTATTCA; listed as DNA, chemistry not fully specified)",,clearly improved activity in the liver,
SEQ ID NO 56: 5′-GsAsGsGscsastsasgscsasgs^mCsAsGsG-3′ with a 5′ GalNac(Conj1a) ({Conj1a}-lG*lA*lG*lG*dC*dA*dT*dA*dG*dC*dA*dG*l[5mC]*lA*lG*lG),,,"reduction in viral titer in the liver (HBV; 8 days after delivery of a single dose and 7 days after the initiation of the infection): 90%; effect on replication of HBV / HBV DNA level in the liver (HBV; Balb/C mice, single injection 24 hours before hydrodynamic injection, SEQ ID 55 2 and 10 mg/kg, SEQ ID 56 2.7 and 13.5 mg/kg): excellent dose-dependent antiviral effect"
"SEQ ID NO 8: GsCsaststsgsgstsastsTsCsA, no cleavable linker, monoGalNAc; ApoB (GCATTGGTATTCA; sugars from the 5' end l2 d8 l3, all phosphorothioate, methylation of C not given here; monoGalNAc conjugated without cleavable linker)",,clearly improved activity in the liver,
